Data from PubChem BioAssay (NCI).
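Following 48 hours of exposure in 96-well plates, responses at five concentrations were used to interpolate endpoints linearly. Here, GI50 denotes the concentration required for 50% inhibition of growth. TGI: concentration producing complete growth inhibition.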

Assays:
Assay in all cases: NCI tumour cell line growth inhibition, 48 h
EKVX NSCLC = tested on: EKVX NSCLC
MCF7 breast = tested on: MCF7 breast
UO-31 renal = tested on: UO-31 renal
SF-539 CNS = tested on: SF-539 CNS
HT29 colon = tested on: HT29 colon
SNB-75 CNS = tested on: SNB-75 CNS
NCI/ADR-RES ovarian = tested on: NCI/ADR-RES ovarian
MOLT-4 leukemia = tested on: MOLT-4 leukemia
SK-MEL-28 melanoma = tested on: SK-MEL-28 melanoma
RXF 393 renal = tested on: RXF 393 renal
OVCAR-3 ovarian = tested on: OVCAR-3 ovarian
LOX IMVI melanoma = tested on: LOX IMVI melanoma
SF-268 CNS = tested on: SF-268 CNS
ACHN renal = tested on: ACHN renal
OVCAR-5 ovarian = tested on: OVCAR-5 ovarian
HCC-2998 colon = tested on: HCC-2998 colon
CCRF-CEM leukemia = tested on: CCRF-CEM leukemia
UACC-257 melanoma = tested on: UACC-257 melanoma
SK-MEL-5 melanoma = tested on: SK-MEL-5 melanoma
RPMI-8226 leukemia = tested on: RPMI-8226 leukemia
UACC-62 melanoma = tested on: UACC-62 melanoma
T-47D breast = tested on: T-47D breast
M14 melanoma = tested on: M14 melanoma
NCI-H226 lung = tested on: NCI-H226 lung
SW-620 colon = tested on: SW-620 colon
CAKI-1 renal = tested on: CAKI-1 renal
NCI-H23 lung = tested on: NCI-H23 lung
KM12 colon = tested on: KM12 colon
K-562 leukemia = tested on: K-562 leukemia
HCT-15 colon = tested on: HCT-15 colon
DU-145 prostate = tested on: DU-145 prostate
PC-3 prostate = tested on: PC-3 prostate
TK-10 renal = tested on: TK-10 renal
HOP-62 NSCLC = tested on: HOP-62 NSCLC
NCI-H460 lung = tested on: NCI-H460 lung
HOP-92 NSCLC = tested on: HOP-92 NSCLC
SN12C renal = tested on: SN12C renal
NCI-H522 lung = tested on: NCI-H522 lung
SNB-19 CNS = tested on: SNB-19 CNS
BT-549 breast = tested on: BT-549 breast
HCT-116 colon = tested on: HCT-116 colon
U251 CNS = tested on: U251 CNS
A549 NSCLC = tested on: A549 NSCLC
786-0 renal = tested on: 786-0 renal
HS 578T breast = tested on: HS 578T breast
SK-MEL-2 melanoma = tested on: SK-MEL-2 melanoma
SF-295 CNS = tested on: SF-295 CNS
OVCAR-4 ovarian = tested on: OVCAR-4 ovarian
MDA-MB-435 = tested on: MDA-MB-435
OVCAR-8 ovarian = tested on: OVCAR-8 ovarian
IGROV1 ovarian = tested on: IGROV1 ovarian
MDA-MB-231 breast = tested on: MDA-MB-231 breast
COLO 205 colon = tested on: COLO 205 colon
SK-OV-3 ovarian = tested on: SK-OV-3 ovarian
MALME-3M melanoma = tested on: MALME-3M melanoma
A498 renal = tested on: A498 renal

## O=C(N/N=C/c1coc2ccc(Cl)cc2c1=O)c1ccncc1
EKVX NSCLC
  GI50: 44.6 µM
  TGI: > 100 µM
MCF7 breast
  GI50: 47.2 µM
  TGI: > 100 µM
UO-31 renal
  GI50: 58.4 µM
  TGI: > 100 µM
SF-539 CNS
  GI50: 75.9 µM
  TGI: > 100 µM
HT29 colon
  GI50: > 100 µM
  TGI: > 100 µM
SNB-75 CNS
  GI50: 49.4 µM
  TGI: > 100 µM
NCI/ADR-RES ovarian
  GI50: 35.5 µM
  TGI: > 100 µM
MOLT-4 leukemia
  GI50: 21.1 µM
  TGI: 71.2 µM
SK-MEL-28 melanoma
  GI50: > 100 µM
  TGI: > 100 µM
RXF 393 renal
  GI50: 65.9 µM
  TGI: > 100 µM
OVCAR-3 ovarian
  GI50: 68.5 µM
  TGI: > 100 µM
LOX IMVI melanoma
  GI50: 38.6 µM
  TGI: > 100 µM
SF-268 CNS
  GI50: 89.7 µM
  TGI: > 100 µM
ACHN renal
  GI50: 29.9 µM
  TGI: > 100 µM
OVCAR-5 ovarian
  GI50: > 100 µM
  TGI: > 100 µM
HCC-2998 colon
  GI50: 30.3 µM
  TGI: 72.3 µM
CCRF-CEM leukemia
  GI50: 28.1 µM
  TGI: > 100 µM
UACC-257 melanoma
  GI50: 56.8 µM
  TGI: > 100 µM
SK-MEL-5 melanoma
  GI50: 44.8 µM
  TGI: > 100 µM
RPMI-8226 leukemia
  GI50: 16.6 µM
  TGI: > 100 µM
UACC-62 melanoma
  GI50: 46.5 µM
  TGI: > 100 µM
T-47D breast
  GI50: > 100 µM
  TGI: > 100 µM
M14 melanoma
  GI50: 37.5 µM
  TGI: > 100 µM
NCI-H226 lung
  GI50: 38.6 µM
  TGI: > 100 µM
SW-620 colon
  GI50: > 100 µM
  TGI: > 100 µM
CAKI-1 renal
  GI50: 74.1 µM
  TGI: > 100 µM
NCI-H23 lung
  GI50: 38.8 µM
  TGI: > 100 µM
KM12 colon
  GI50: 58.4 µM
  TGI: > 100 µM
K-562 leukemia
  GI50: 9.49 µM
  TGI: 66.9 µM
HCT-15 colon
  GI50: 44.4 µM
  TGI: > 100 µM
DU-145 prostate
  GI50: > 100 µM
  TGI: > 100 µM
PC-3 prostate
  GI50: 59.1 µM
  TGI: > 100 µM
TK-10 renal
  GI50: 17.2 µM
  TGI: 52.5 µM
HOP-62 NSCLC
  GI50: 39.7 µM
  TGI: > 100 µM
NCI-H460 lung
  GI50: 68.2 µM
  TGI: > 100 µM
HOP-92 NSCLC
  GI50: 93.8 µM
  TGI: > 100 µM
SN12C renal
  GI50: 43.2 µM
  TGI: > 100 µM
NCI-H522 lung
  GI50: 58.2 µM
  TGI: > 100 µM
SNB-19 CNS
  GI50: > 100 µM
  TGI: > 100 µM
BT-549 breast
  GI50: 71.3 µM
  TGI: > 100 µM
HCT-116 colon
  GI50: 40.3 µM
  TGI: > 100 µM
U251 CNS
  GI50: 39.7 µM
  TGI: > 100 µM
A549 NSCLC
  GI50: 98.2 µM
  TGI: > 100 µM
786-0 renal
  GI50: 55.3 µM
  TGI: > 100 µM
HS 578T breast
  GI50: 32.6 µM
  TGI: > 100 µM
SK-MEL-2 melanoma
  GI50: 74.3 µM
  TGI: > 100 µM
SF-295 CNS
  GI50: 50.1 µM
  TGI: > 100 µM
OVCAR-4 ovarian
  GI50: > 100 µM
  TGI: > 100 µM
MDA-MB-435
  GI50: 73 µM
  TGI: > 100 µM
OVCAR-8 ovarian
  GI50: 35.6 µM
  TGI: > 100 µM
IGROV1 ovarian
  GI50: 24.8 µM
  TGI: > 100 µM
MDA-MB-231 breast
  GI50: 80.6 µM
  TGI: > 100 µM
COLO 205 colon
  GI50: > 100 µM
  TGI: > 100 µM
SK-OV-3 ovarian
  GI50: > 100 µM
  TGI: > 100 µM

## COc1ccc(S(=O)(=O)N2CCN(C(=O)OCc3ccccc3)CC2C(=O)NO)cc1 (stereo unspecified)
MALME-3M melanoma
  GI50: > 25 µM
  TGI: > 25 µM
EKVX NSCLC
  GI50: 6.18 µM
  TGI: > 25 µM
MCF7 breast
  GI50: 13 µM
  TGI: > 25 µM
UO-31 renal
  GI50: 17 µM
  TGI: > 25 µM
SF-539 CNS
  GI50: > 25 µM
  TGI: > 25 µM
HT29 colon
  GI50: > 25 µM
  TGI: > 25 µM
SNB-75 CNS
  GI50: > 25 µM
  TGI: > 25 µM
NCI/ADR-RES ovarian
  GI50: > 25 µM
  TGI: > 25 µM
A498 renal
  GI50: 24.6 µM
  TGI: > 25 µM
MOLT-4 leukemia
  GI50: 5.37 µM
  TGI: 18.4 µM
SK-MEL-28 melanoma
  GI50: > 25 µM
  TGI: > 25 µM
RXF 393 renal
  GI50: > 25 µM
  TGI: > 25 µM
OVCAR-3 ovarian
  GI50: 12.1 µM
  TGI: > 25 µM
LOX IMVI melanoma
  GI50: 1.28 µM
  TGI: 4.6 µM
SF-268 CNS
  GI50: > 25 µM
  TGI: > 25 µM
ACHN renal
  GI50: 10.6 µM
  TGI: > 25 µM
OVCAR-5 ovarian
  GI50: > 25 µM
  TGI: > 25 µM
HCC-2998 colon
  GI50: > 25 µM
  TGI: > 25 µM
CCRF-CEM leukemia
  GI50: 6.2 µM
  TGI: > 25 µM
UACC-257 melanoma
  GI50: > 25 µM
  TGI: > 25 µM
SK-MEL-5 melanoma
  GI50: > 25 µM
  TGI: > 25 µM
UACC-62 melanoma
  GI50: > 25 µM
  TGI: > 25 µM
T-47D breast
  GI50: 12.1 µM
  TGI: > 25 µM
M14 melanoma
  GI50: > 25 µM
  TGI: > 25 µM
NCI-H226 lung
  GI50: > 25 µM
  TGI: > 25 µM
SW-620 colon
  GI50: > 25 µM
  TGI: > 25 µM
CAKI-1 renal
  GI50: 10.1 µM
  TGI: > 25 µM
NCI-H23 lung
  GI50: > 25 µM
  TGI: > 25 µM
KM12 colon
  GI50: > 25 µM
  TGI: > 25 µM
K-562 leukemia
  GI50: 13.6 µM
  TGI: > 25 µM
HCT-15 colon
  GI50: > 25 µM
  TGI: > 25 µM
DU-145 prostate
  GI50: 18.7 µM
  TGI: > 25 µM
PC-3 prostate
  GI50: 17.6 µM
  TGI: > 25 µM
TK-10 renal
  GI50: 10.9 µM
  TGI: > 25 µM
HOP-62 NSCLC
  GI50: > 25 µM
  TGI: > 25 µM
NCI-H460 lung
  GI50: > 25 µM
  TGI: > 25 µM
SN12C renal
  GI50: > 25 µM
  TGI: > 25 µM
NCI-H522 lung
  GI50: 5.16 µM
  TGI: > 25 µM
SNB-19 CNS
  GI50: > 25 µM
  TGI: > 25 µM
BT-549 breast
  GI50: > 25 µM
  TGI: > 25 µM
HCT-116 colon
  GI50: > 25 µM
  TGI: > 25 µM
U251 CNS
  GI50: > 25 µM
  TGI: > 25 µM
A549 NSCLC
  GI50: > 25 µM
  TGI: > 25 µM
786-0 renal
  GI50: > 25 µM
  TGI: > 25 µM
HS 578T breast
  GI50: > 25 µM
  TGI: > 25 µM
SK-MEL-2 melanoma
  GI50: > 25 µM
  TGI: > 25 µM
SF-295 CNS
  GI50: > 25 µM
  TGI: > 25 µM
OVCAR-4 ovarian
  GI50: > 25 µM
  TGI: > 25 µM
MDA-MB-435
  GI50: 13.4 µM
  TGI: > 25 µM
OVCAR-8 ovarian
  GI50: > 25 µM
  TGI: > 25 µM
IGROV1 ovarian
  GI50: 4.09 µM
  TGI: > 25 µM
MDA-MB-231 breast
  GI50: > 25 µM
  TGI: > 25 µM
COLO 205 colon
  GI50: > 25 µM
  TGI: > 25 µM
SK-OV-3 ovarian
  GI50: > 25 µM
  TGI: > 25 µM
